From ChEMBL document CHEMBL1122669, “Hypolipidemic activity of phthalimide derivatives. 7. Structure-activity studies of indazolone analogues” (1984)

What was measured:
Assay type in all cases: functional
Mus musculus [1] = test: Reduction of serum triglycerides in CF1 male mice on day 16 following 20 mg/kg/day i.p. administration.; settings: route intraperitoneal
Mus musculus [2] = test: Reduction of serum cholesterol in CF1 male mice on day 16 following 20 mg/kg/day i.p. administration.; settings: route intraperitoneal
Mus musculus [3] = test: Reduction of serum cholesterol in CF1 male mice on day 9 following 20 mg/kg/day i.p. administration.; settings: route intraperitoneal
Mus musculus [4] = test: Hypolipidemic effects in CF1 male mice at a dose 150 mg/(kg day), ip, percent control of serum triglyceride was determined on day 16
Mus musculus [5] = test: Hypolipidemic effects in CF1 male mice at a dose 150 mg/(kg day), ip, percent control of serum cholesterol was determined on day 16
Mus musculus [6] = test: Hypolipidemic effects in CF1 male mice at a dose 150 mg/(kg day), ip,percent control of serum cholesterol was determined on day 9

| Compound | Serum triglycerides, % of control (Mus musculus [1]) [%] | Serum cholesterol, percent of control (Mus musculus [2]) [%] | Serum cholesterol, percent of control (Mus musculus [3]) [%] | Control (Mus musculus [4]) [%] | Control (Mus musculus [5]) [%] | Control (Mus musculus [6]) [%] |
| --- | --- | --- | --- | --- | --- | --- |
| O=c1c2ccccc2[nH]n1Cc1ccccc1 | 58 | 72 | 83 |  |  |  |
| Oc1n[nH]c2ccccc12 | 75 | 80 | 96 |  |  |  |
| Cn1[nH]c2ccccc2c1=O | 72 | 69 | 92 |  |  |  |
| CCCCn1[nH]c2ccc(C)cc2c1=O | 81 | 97 | 95 |  |  |  |
| CCn1[nH]c2ccccc2c1=O | 71 | 71 | 98 |  |  |  |
| CC(=O)c1ccc(Cn2[nH]c3ccccc3c2=O)cc1 | 50 | 75 | 76 |  |  |  |
| CCCCn1[nH]c2cc(Cl)ccc2c1=O | 69 | 75 | 98 |  |  |  |
| CC(=O)CCn1[nH]c2ccccc2c1=O | 46 | 46 | 78 |  |  |  |
| CCCn1[nH]c2ccccc2c1=O | 77 | 68 | 92 |  |  |  |
| CC(=O)c1ccccc1Cn1[nH]c2ccccc2c1=O | 41 | 60 | 98 |  |  |  |
| O=c1c2ccccc2[nH]n1CCO | 63 | 83 | 97 |  |  |  |
| CCCCn1[nH]c2ccccc2c1=O | 44 | 46 | 92 |  |  |  |
| CC(=O)c1cccc(Cn2[nH]c3ccccc3c2=O)c1 | 56 | 70 | 86 |  |  |  |
| CCCCn1[nH]c2ccc(Cl)cc2c1=O | 83 | 74 | 76 |  |  |  |
| O=c1c2ccccc2[nH]n1CCCO | 72 | 83 | 96 |  |  |  |
| CCCCCn1[nH]c2ccccc2c1=O | 77 | 73 | 79 |  |  |  |
| CCOC(=O)n1[nH]c(=O)c2ccccc21 | 61 | 60 | 78 |  |  |  |
| CCOC(=O)n1c2ccccc2c(=O)n1CCC(=O)O | 70 | 77 | 88 |  |  |  |
| CCOC(=O)C(C)(C)Oc1ccc(Cl)cc1 [CLOFIBRATE] |  |  |  | 75 | 87 | 92 |
| O=C1NC(=O)c2ccccc21 [PHTHALIMIDE] | 44 | 57 | 63 |  |  |  |
